Assay results from patent US11123355B2, “Antiviral benzyl-amine phosphodiamide compounds” (Merck Sharp & Dohme Corp., priority 2016, dated 2021).
Read-outs that look alike come from different tables or passages of the source.

Tested on: HIV-1 (H9/IIB strain)
Experiment: Multiple Round HIV-1 Infection Assay (Viking Assay) in MT4-GFP cells
Type: cell-based
Settings: inhibition of reproductive ratio R0
Protocol: Assessing antiviral potency in a Multiple Round HIV-1 Infection Assay (Viking Assay) The antiviral activity of the tenofovir prodrugs of the Examples herein was assessed in an assay that measures the rate of replication of HIV in cell culture, termed the Viking assay (VIral KINetics in Green cells) and performed as follows. HIV-1 replication was monitored using MT4-gag-GFP clone D3 (hereafter designated MT4-GFP), which are MT-4 cells modified to harbor a GFP reporter gene, the expression of which is dependent on the HIV-1 expressed proteins tat and rev. Productive infection of an MT4-GFP cell with HIV-1 results in GFP expression approximately 24 h post-infection. MT4-GFP cells were maintained at 37° C./5% CO2/90% relative humidity in RPMI 1640 supplemented with 10/o fetal bovine serum, 100 U/ml penicillin/streptomycin, and 400 μg/ml G418 to maintain the reporter gene. For infections, MT4-GFP cells were placed in the same medium lacking G418 and infected overnight with HIV-1 (H9/IIB strain) virus at an approximate multiplicity of infection of 0.01 in the same incubation conditions. Cells were then washed and re-suspended in either RPMI 1640 supplemented with 10% or 50% normal human serum (NHS) at 1.6×10^5 cells/mL (10% NHS or 50% NHS, respectively). Compound plates were prepared by dispensing compounds dissolved in DMSO into wells of 384 well poly-D-lysine-coated plates (0.2 μl/well) using an ECHO acoustic dispenser. Each compound was tested in a 10-point serial 3-fold dilution (typical final concentrations: 8.4 μM-0.42 nM). Controls included no inhibitor (DMSO only) and a combination of three antiviral agents (efavirenz, indinavir, an in-house integrase strand transfer inhibitor at final concentrations of 4 μM each). Cells were added (50 μL/well) to compound plates and the infected cells were maintained at 37° C./5% CO2/90% relative humidity.
Infected cells were quantified at two time points, ˜48 h and ˜72 h post-infection, by counting the number of green cells in each well using an Acumen eX3 scanner. The increase in the number of green cells over ˜24 h period gives the reproductive ratio, R0, which is typically 5-15 and has been shown experimentally to be in logarithmic phase (data not shown). Inhibition of R0 is calculated for each well, and IC50s determined by non-linear 4-parameter curve fitting.

[1] = MT4-GFP cells infected with HIV-1, 10% normal human serum, read-out: Viking, IC50 (10% NHS)
[2] = MT4-GFP cells infected with HIV-1, 50% normal human serum, read-out: Viking, IC50 (50% NHS)
[3] = Human immunodeficiency virus 1, MT4-GFP cells infected with HIV-1, 10% normal human serum, read-out: Viking, IC50 (10% NHS)
[4] = Human immunodeficiency virus 1, MT4-GFP cells infected with HIV-1, 50% normal human serum, read-out: Viking, IC50 (50% NHS)

Compound	IC50 [1]	IC50 [2]	IC50 [3]	IC50 [4]
CCCOC(=O)C(C)(C)N[P@@](=O)(CO[C@H](C)Cn1cnc2c(N)ncnc21)N[C@@H](c1ccc(C#N)cc1)C(F)(F)F.CCCOC(=O)C(C)(C)N[P@](=O)(CO[C@H](C)Cn1cnc2c(N)ncnc21)N[C@@H](c1ccc(C#N)cc1)C(F)(F)F (mixture of isomers) [Example 24A, propyl 2-(((R)-((((R)-1-(6-amino-9H-purin-9-yl)propan-2-yl)oxy)methyl)(((S)-1-(4-cyanophenyl)-2,2,2-trifluoroethyl)amino)phosphoryl)amino)-2-methylpropanoate and propyl 2-(((S)-((((R)-1-(6-amino-9H-purin-9-yl)propan-2-yl)oxy)methyl)(((S)-1-(4-cyanophenyl)-2,2,2-trifluoroethyl)amino)phosphoryl)amino)-2-methylpropanoate]	6.3 nM	30 nM	–	–
CCCOC(=O)C(C)(C)N[P@@](=O)(CO[C@H](C)Cn1cnc2c(N)ncnc21)N[C@@H](c1ccc(C#N)cc1)C(F)(F)F.CCCOC(=O)C(C)(C)N[P@](=O)(CO[C@H](C)Cn1cnc2c(N)ncnc21)N[C@@H](c1ccc(C#N)cc1)C(F)(F)F (mixture of isomers) [Example 24B, propyl 2-(((R)-((((R)-1-(6-amino-9H-purin-9-yl)propan-2-yl)oxy)methyl)(((S)-1-(4-cyanophenyl)-2,2,2-trifluoroethyl)amino)phosphoryl)amino)-2-methylpropanoate and propyl 2-(((S)-((((R)-1-(6-amino-9H-purin-9-yl)propan-2-yl)oxy)methyl)(((S)-1-(4-cyanophenyl)-2,2,2-trifluoroethyl)amino)phosphoryl)amino)-2-methylpropanoate]	22 nM	170 nM	–	–
CCCOC(=O)C(C)(C)NP(=O)(CO[C@H](C)Cn1cnc2c(N)ncnc21)N(C)[C@H](C)c1ccc(Cl)cc1 (single isomer, unassigned) [Example 2B]	–	–	2 nM	9.6 nM
CCCOC(=O)C(C)(C)N[P@@](=O)(CO[C@H](C)Cn1cnc2c(N)ncnc21)N[C@H](c1ccc(OC(F)(F)F)cc1)C(F)(F)F (single isomer, unassigned) [Example 27B]	52 nM	250 nM	–	–
CCCOC(=O)C(C)(C)NP(=O)(CO[C@H](C)Cn1cnc2c(N)ncnc21)N[C@H](C)c1ccc(Cl)cc1 (stereo partly drawn) [Example 1A, propyl 2-(((R)-((((R)-1-(6-amino-9H-purin-9-yl)propan-2-yl)oxy)methyl(((R)-1-(4-chlorophenyl)ethyl)amino)phosphoryl)amino)-2-methylpropanoate and propyl 2-(((S)-((((R)-1-(6-amino-9H-purin-9-yl)propan-2-yl)oxy)methyl)(((R)-1-(4-chlorophenyl)ethyl)amino)phosphoryl)amino)-2-methylpropanoate]	–	–	120 nM	710 nM
CCCOC(=O)C(C)(C)NP(=O)(CO[C@H](C)Cn1cnc2c(N)ncnc21)N(C)[C@H](C)c1ccc(Cl)cc1 (stereo partly drawn) [Example 2A, propyl 2-(((R)-((((R)-1-(6-amino-9H-purin-9-yl)propan-2-yl)oxy)methyl(((R)-1-(4-chlorophenyl)ethyl)(methyl)amino)phosphonyl)amino)-2-methylpropanoate and propyl 2-(((S)-((((R)-1-(6-amino-9H-purin-9-yl)propan-2-yl)oxy)methyl)(((R)-1-(4-chlorophenyl)ethyl)(methyl)amino)phosphoryl)amino)-2-methylpropanoate]	–	–	43 nM	130 nM
CCCOC(=O)C(C)(C)NP(=O)(CO[C@H](C)Cn1cnc2c(N)ncnc21)N[C@H](C)c1ccc(OC(F)(F)F)cc1 (stereo partly drawn) [Example 3A]	–	–	80 nM	780 nM
CCCOC(=O)C(C)(C)NP(=O)(CO[C@H](C)Cn1cnc2c(N)ncnc21)N[C@H](c1ccc(OC(F)(F)F)cc1)C(F)(F)F (stereo partly drawn) [Example 4B]	16 nM	160 nM	–	–
CCCOC(=O)C(C)(C)N[P@@](=O)(CO[C@H](C)Cn1cnc2c(N)ncnc21)NCc1ccc(OC(F)(F)F)cc1 [Example 7B, propyl 2-(((R)-((((R)-1-(6-amino-9H-purin-9-yl)propan-2-yl)oxy)methyl)((4-(trifluoromethoxy)benzyl)amino)phos-phoryl)amino)-2-methylpropanoate and propyl 2-(((S)-((((R)-1-(6-amino-9H-purin-9-yl)propan-2-yl)oxy)methyl)((4-(trifluoromethoxy)benzyl)amino)phos-phoryl)amino)-2-methylpropanoate]	45 nM	300 nM	–	–
CCCOC(=O)C(C)(C)N[P@@](=O)(CO[C@H](C)Cn1cnc2c(N)ncnc21)N[C@H](C)c1cccc(F)c1 [Example 9A, propyl 2-(((R)-((((R)-1-(6-amino-9H-purin-9-yl)propan-2-yl)oxy)methyl)(((R)-1-(3-fluorophenyl)ethyl)amino)phosphoryl)ami-no)-2-methylpropanoate and propyl 2-(((S)-((((R)-1-(6-amino-9H-purin-9-yl)propan-2-yl)oxy)methyl)(((R)-1-(3-fluorophenyl)ethyl)amino)phosphoryl)ami-no)-2-methylpropanoate]	89 nM	940 nM	–	–
CCCOC(=O)C(C)(C)N[P@@](=O)(CO[C@H](C)Cn1cnc2c(N)ncnc21)N[C@@H](C)c1cccc(F)c1 [Example 10A, propyl 2-(((R)-((((R)-1-(6-amino-9H-purin-9-yl)propan-2-yl)oxy)methyl)(((S)-1-(3-fluorophenyl)ethyl)amino)phosphoryl)ami-no)-2-methylpropanoate and propyl 2-(((S)-((((R)-1-(6-amino-9H-purin-9-yl)propan-2-yl)oxy)methyl)(((S)-1-(3-fluorophenyl)ethyl)amino)phosphoryl)ami-no)-2-methylpropanoate]	68 nM	560 nM	–	–
CCCOC(=O)C(C)(C)N[P@@](=O)(CO[C@H](C)Cn1cnc2c(N)ncnc21)N[C@@H](C)c1cccc(F)c1 [Example 10B, propyl 2-(((R)-((((R)-1-(6-amino-9H-purin-9-yl)propan-2-yl)oxy)methyl)(((S)-1-(3-fluorophenyl)ethyl)amino)phosphoryl)ami-no)-2-methylpropanoate and propyl 2-(((S)-((((R)-1-(6-amino-9H-purin-9-yl)propan-2-yl)oxy)methyl)(((S)-1-(3-fluorophenyl)ethyl)amino)phosphoryl)ami-no)-2-methylpropanoate]	99 nM	490 nM	–	–
CCCOC(=O)C(C)(C)NP(=O)(CO[C@H](C)Cn1cnc2c(N)ncnc21)N[C@@H](C)c1ccc(C(F)(F)F)cc1 (stereo partly drawn) [Example 11A, propyl 2-(((R)-((((R)-1-(6-amino-9H-purin-9-yl)propan-2-yl)oxy)methyl)(((S)-1-(4-(trifluoromethyl)phenyl)ethyl)amino)phos-phoryl)amino)-2-methylpropanoate and propyl 2-(((S)-((((R)-1-(6-amino-9H-purin-9-yl)propan-2-yl)oxy)methyl)(((S)-1-(4-(trifluoromethyl)phenyl)ethyl)amino)phosphoryl)amino)-2-methylpropanoate]	4.6 nM	42 nM	–	–
CCCOC(=O)C(C)(C)NP(=O)(CO[C@H](C)Cn1cnc2c(N)ncnc21)N[C@@H](C)c1ccc(C(F)(F)F)cc1 (stereo partly drawn) [Example 11B, propyl 2-(((R)-((((R)-1-(6-amino-9H-purin-9-yl)propan-2-yl)oxy)methyl)(((S)-1-(4-(trifluoromethyl)phenyl)ethyl)amino)phos-phoryl)amino)-2-methylpropanoate and propyl 2-(((S)-((((R)-1-(6-amino-9H-purin-9-yl)propan-2-yl)oxy)methyl)(((S)-1-(4-(trifluoromethyl)phenyl)ethyl)amino)phosphoryl)amino)-2-methylpropanoate]	16 nM	84 nM	–	–
CCCOC(=O)C(C)(C)NP(=O)(CO[C@H](C)Cn1cnc2c(N)ncnc21)N[C@H](C)c1ccc(C(F)(F)F)cc1 (stereo partly drawn) [Example 12A, propyl 2-(((R)-((((R)-1-(6-amino-9H-purin-9-yl)propan-2-yl)oxy)methyl)(((R)-1-(4-(trifluoromethyl)phenyl)ethyl)amino)phos-phoryl)amino)-2-methylpropanoate and propyl 2-(((S)-((((R)-1-(6-amino-9H-purin-9-yl)propan-2-yl)oxy)methyl)(((R)-1-(4-(trifluoromethyl)phenyl)ethyl)amino)phos-phoryl)amino)-2-methylpropanoate]	96 nM	680 nM	–	–
